Where “and” joins values, the source holds several entries; their conditions need not be identical. Equal values may be shown once.
How the values were obtained:
[1] = test system: endometriotic epithelial 12Z cells; assay: MTT reduction assay, cell viability; type: cell-based, human; conditions: for IC10 / IC50: 12Z cells, 48-h incubation; for IC50: Homo sapiens
Description: (§1) The effect of resveratrol and its natural analogs on the viability of endometriotic epithelial 12Z cells and endometrial stromal T HESC cells was assessed using the MTT assay. Table 1 presents the IC10 and IC50 values (the inhibitor concentration required for 10% and 50% reduction in […]) obtained after 48-h incubation with the tested compounds. […] The cytotoxicity of resveratrol and pterostilbene to 12Z cells was not markedly different. T HESC and 12Z cells varied in susceptibility to the treatment with stilbenes tested, as evidenced by the cytotoxic doses shown in Table 1. […] Similarly, resveratrol evoked much weaker cytotoxic effects in T HESC cells than in 12Z cells. Polydatin at concentrations up to 400 µM was not cytotoxic to the T HESC cells, while at a dose of 86.76 µM, it induced the first cytotoxic symptoms in 12Z cells. […] The increased susceptibility of endometriotic 12Z cells than endometrial T HESC cells to resveratrol and its natural analogs was consistent in both assays (Fig. 1).
(§2) The immortalized human endometriotic epithelial cells (12Z), derived from peritoneal endometriosis lesions, were obtained from Applied Biological Materials Inc. (Richmond, Canada). The 12Z cells were cultured in Dulbecco's Modified Eagle Medium/Nutrient Mixture F-12 (DMEM/F12), containing 10% fetal bovine serum (FBS) and 50 mg/L gentamycin. American Type Culture Collection (ATCC, Manassas, VA, USA) was the source for human endometrial stromal cells immortalized by telomerase (T HESC, CRL-4003). The cells were maintained routinely in phenol red-free DMEM/F12 supplemented with 10% charcoal/dextran treated FBS, 1% ITS + 1, and 50 mg/L gentamycin, at 37 °C and 5% CO2. Both cell lines were negative for mycoplasma contamination; mycoplasma-free cells were confirmed repeatedly during the study.
(§3) Cells were seeded at a density of 0.15 × 10^5 cells/cm^2 in 6-well plates. The 24-h cell cultures were treated with resveratrol and its derivatives for 48 h under standard culture conditions. Camptothecin was applied as a reference apoptosis inducer; its final concentrations were set to 5 µM and 50 µM.
(§4) Cell viability and metabolic activity were determined using the MTT colorimetric assay, according to the protocol described in previous studies. Based on the obtained data, the dose–response curves were plotted, and inhibitory concentrations (IC) were calculated. In addition, cell proliferation was measured using the alamarBlue™ Cell Viability Reagent (Invitrogen, Carlsbad, CA, USA) according to the manufacturer's protocol. Fluorescence was measured using a Tecan M200 Infinite microplate reader (Tecan Group Ltd., Männedorf, Switzerland).

[2] = test system: endometrial stromal T HESC cells; assay: MTT reduction assay, cell viability; type: cell-based, human; conditions: for IC50: Homo sapiens; for IC50 / IC10: T HESC cells, 48-h incubation, MTT
Description: as §1, §2, §3, §4

[3] = test system: BAX, FAS, CASP3, CASP8, and CASP9 genes; assay: Real-time PCR, proapoptotic gene panel in 12Z cells; type: cell-based, human
Description: (§5) Figure 7 Effect of resveratrol and its analogs on the mRNA expression of BCL2, BCL2L1, BAX, FAS, CASP3, CASP8, and CASP9 genes in endometriotic 12Z cells, assessed by real-time PCR. Data were normalized against β-actin and expressed as relative mRNA expression (-fold of control). The values represent the means (n = 3) ± SD. Significant differences *p < 0.05; **p < 0.01; ***p < 0.001 compared to vehicle control.
The FAS overexpression depended on the concentration of stilbenes, reaching a relative expression up to tenfold higher in treated endometriotic cells. The role of proteases in resveratrol-, pterostilbene-, and piceatannol-induced apoptosis was also indicated by the upregulation of well-known initiator caspases of the mitochondrial and death receptor apoptotic pathways such as caspases 8, 9 and executioner caspase 3 (Fig. 7).
Gene expression analysis was carried out according to the previously described protocol. TRI reagent was applied for total RNA isolation, synthesis cDNA Transcriptor First-Strand kit (Roche Diagnostics GmbH, Mannheim, Germany) for first-strand cDNA synthesis, and SYBR® Select Master Mix (Life Technologies, Carlsbad, CA, USA) for real-time PCR. […] Relative mRNA expression was shown as fold change calculated using the 2^−ΔΔCt method compared with control cells.

endometriotic 12Z cells [4] = assay: TUNEL assay of DNA fragmentation, flow cytometry; type: cell-based, human; conditions: 48 h
Description: Cell death via apoptosis in 12Z cells after exposure to resveratrol and its natural derivatives was determined by detecting DNA fragmentation (Fig. 5). DNA degradation was correlated in a dose-dependent manner. […] Tunel-positive cell population in the 12Z cell culture treated with camptothecin was estimated at 32.5%, compared to 0.6% in the vehicle-treated control culture.
The detection of DNA fragmentation in 12Z cells was performed using the terminal deoxynucleotidyl-transferase-mediated dUTP nick end labeling (TUNEL) assay with In Situ Cell Death Detection Kit (Roche Diagnostics, Indianapolis, IN, USA). The test detects DNA breakage that is identified by terminal deoxynucleotidyl transferase. After treatment, the harvested cells were fixed in 4% paraformaldehyde and permeabilized in 0.1% Triton X-100. After washing in PBS, cells were subjected to TUNEL labeling with fluorescein-labeled dUTP and terminal deoxynucleotidyl transferase mixture. Cells were analyzed by flow cytometry using an Amnis™ FlowSight™ flow cytometer.

endometriotic 12Z cells [5] = assay: Annexin V/PI double staining, flow cytometry; type: cell-based, human; conditions: 50 µM, 100 µM, 200 µM, 48 h
Description: After treating endometriotic 12Z cells with stilbenes, the phosphatidylserine externalization was measured by Annexin V and PI double staining (Fig. 4A). Examples of the single-cell images from sub-populations: live cells (Annexin V/PI-double negative), early apoptotic cells (Annexin V-positive/PI-negative), late apoptotic cells (Annexin V/PI-double positive), necrotic cells (Annexin V-negative/PI-positive) are presented in Fig. 4B.
Figure 4 Flow cytometry analysis of endometriotic 12Z cells stained with PI and FITC-Annexin V. Cells were treated with resveratrol, pterostilbene, piceatannol, polydatin and their vehicle (0.5% ethanol) for 48 h. Camptothecin was used as a positive control. (A) Representative images of each distinct cellular subset. n = 4; scale bars = 20 μm. (B) Representative flow cytometry dot plots. (C) Summary of FITC-Annexin V and PI stained populations in 12Z cell cultures. […] The results are presented as means ± SD. *p < 0.05, **p < 0.01, ***p < 0.001 compared to vehicle control.
Apoptosis was determined by Annexin V and propidium iodide (PI) double staining with the FITC Annexin V Apoptosis Detection kit (BD Pharmingen, Heidelberg, Germany) by flow cytometry according to the manufacturer's instructions. […] The cells were analyzed with an Amnis™ FlowSight™ flow cytometer (Luminex Corporation, TX, USA). […]

caspases-3/7 = assay: APO-One Homogenous Caspase-3/7 Assay in 12Z cells; type: cell-based, human
Description: Resveratrol evoked a dose-dependent caspase-3/7 activation in 12Z cells (F = 2467.29, p < 0.0001). […] It was consistent with the results of CASP3 gene expression activation. […] There was a 2.8-fold activation of caspase 3/7 enzymes following treatment with piceatannol at a 200 μM dose, which complies with the CASP3 mRNA expression level.
To quantitate the proteolytic activity of caspase 3 and 7, we performed an assay based on the proteolytic cleavage of the C-terminal side of the aspartate residue in the DEVD peptide substrate by caspase 3/7 and into the fluorescent rhodamine 110. Caspase 3/7 activity was determined using the APO-One Homogenous Caspase-3/7 Assay (Promega Corporation, Wisconsin, USA) following the manufacturer's instructions. The obtained data were normalized to cellular protein content. The total protein was quantified by BCA assay (Pierce® BCA Protein Assay Kit, Thermo Scientific Inc., USA) according to the manufacturer's protocol.

epithelial 12Z cells = test system: epithelial 12Z cells; parameters: method as in PMID 35361545; conditions: 100 µM, 48-h treatment; cited from earlier work
[6] = test system: endometrial stromal St-T1b cells; parameters: method as in PMID 35361545; conditions: 100 µM, 48-h treatment; cited from earlier work
CASP3 gene = assay: Real-time PCR, caspase-3 mRNA expression in 12Z cells; type: cell-based, human; conditions: concentration not given
Description: as §5
We analyzed the activation of caspases at the molecular and cellular levels. […] Caspase 3 expression in pterostilbene-induced apoptosis in endometriotic cells was much weaker, even though this compound generated the most significant number of DNA strand breaks. […] It has now been recognized that in response to apoptotic stimuli, mitochondria can also release caspase-independent cell death effectors such as apoptosis-inducing factor (AIF) and endonuclease G. Following release and translocation to the nucleus, AIF becomes an active executioner of the cell death by the initiation of large-scale DNA fragmentation^37. It is essential to realize that apoptosis evolved complex death pathways, which overlap with each other. […]
Gene expression analysis was carried out according to the previously described protocol. […] Relative mRNA expression was shown as fold change calculated using the 2^−ΔΔCt method compared with control cells.

[7] = test system: endometrial stromal cells derived from patients with endometriosis; parameters: method as in PMID 33083332, PMID 26782781; conditions: cited from earlier work
BAX gene = assay: Real-time PCR, BAX mRNA expression in 12Z cells; type: cell-based, human; conditions: 50 µM, fold of control, normalized against β-actin
Description: The effect of resveratrol and its natural analogs on the expression of pro- or antiapoptotic regulators, was examined by real-time PCR. […] BAX overexpression was also documented in 12Z cells exposed to resveratrol.
as §5
Gene expression analysis was carried out according to the previously described protocol. TRI reagent was applied for total RNA isolation, synthesis cDNA Transcriptor First-Strand kit (Roche Diagnostics GmbH, Mannheim, Germany) for first-strand cDNA synthesis, and SYBR® Select Master Mix (Life Technologies, Carlsbad, CA, USA) for real-time PCR. The levels of transcripts were normalized using β-actin as an internal control, which was previously applied in 12Z cells. Relative mRNA expression was shown as fold change calculated using the 2^−ΔΔCt method compared with control cells.

endometriotic 12Z cells [8] = assay: Cell cycle analysis by PI staining, flow cytometry; type: cell-based, human; conditions: 100 µM, 48 h
Description: To investigate whether resveratrol and its analogs have interfered with cell cycle progression in endometriotic 12Z cells, we analyzed the cell cycle distribution by flow cytometry. […] The largest subpopulation of apoptotic cells was found in the cell cultures treated with resveratrol and pterostilbene at the concentration of 100 µM (31.2 ± 8.0% and 33.1 ± 9.7%, respectively) and piceatannol at a concentration of 200 µM (45.1 ± 5. 6%).
Cell cycle progression was analyzed by flow cytometry using PI staining. After treatment, 12Z cells were collected, washed with PBS, and fixed in 70% ethanol. The cells were then washed, resuspended in PBS, and stained with 50 μg/ml PI in the presence of 100 μg/ml RNase A. Cell cycle distribution was analyzed using a FACSCanto flow cytometer (Becton Dickinson, San Jose, CA, USA). Data analysis was performed with the FACS Diva software (Becton Dickinson).

| Compound | IC10 [1] | IC50 [1] | IC50 [2] | IC10 [2] | cytotoxicity to T HESC cells ([2]; concentrations up to 400 µM) | mRNA transcripts of BAX, FAS, CASP3, CASP8, and CASP9 genes [3] | DNA strand breaks (TUNEL-positive cells) (endometriotic 12Z cells [4]; concentration not given) | apoptosis stage induced (Annexin V/PI) (endometriotic 12Z cells [5]) | caspase 3/7 activity change (caspases-3/7; concentration not given) | reduction of cell viability (epithelial 12Z cells) | reduction of cell viability [6] | caspase-3 mRNA expression upregulation (CASP3 gene) | cytotoxicity in 12Z versus T HESC cells, comparing IC50 values ([1]; 48 h) | DNA strand breaks (TUNEL-positive cells) (endometriotic 12Z cells [4]; 100 µM) | endometriotic stromal cell viability (reduced to) ([7]; 200 μM) | influence on viability of endometrial stromal cells ([7]; concentrations up to 100 μM, 48-h treatment) | BAX mRNA expression increase (BAX gene) | subpopulation of apoptotic cells (lower DNA content, subG1) (endometriotic 12Z cells [8]) | caspase-3/7 activity increase (caspases-3/7; 100 µM) | caspase-3/7 activity increase (caspases-3/7; 200 µM) |
| --- | --- | --- | --- | --- | --- | --- | --- | --- | --- | --- | --- | --- | --- | --- | --- | --- | --- | --- | --- | --- |
| OC[C@H]1O[C@@H](Oc2cc(O)cc(/C=C/c3ccc(O)cc3)c2)[C@H](O)[C@@H](O)[C@@H]1O [Polydatin, 3,4′,5-trihydroxystilbene-3-β-D-glucoside] | 86.76 µM and 86.76 ± 10.01 µM | 243 ± 22.5 µM | > 400 µM | > 400 µM | not cytotoxic | did not significantly increase | 1.08% | increased population of early apoptosis cells without induction of late apoptosis | not significantly changed |  |  |  |  |  |  |  |  |  |  |  |
| Oc1ccc(/C=C/c2cc(O)cc(O)c2)cc1 [Resveratrol] | 8.99 ± 4.29 µM | 49.3 ± 11.4 µM | 251 ± 1.58 µM | 160.35 ± 7.05 µM |  |  |  |  |  | 45.4% | 49.2% | 7.3 fold | fivefold higher | 42.8% | approximately 50% | did not influence the viability | approximately sevenfold | 31.2 ± 8.0% | 10.3 fold |  |
| Oc1cc(O)cc(C=Cc2ccc(O)c(O)c2)c1 [Piceatannol, 3,3′,4,5′-tetrahydroxystilbene] | 167.50 ± 11.36 µM | 224 ± 6.47 µM | 364 ± 17 µM | 222.68 ± 14.49 ^# µM |  |  |  |  |  |  |  |  |  | 49.6% and ~50% |  |  |  |  |  | 2.8 fold |
| CC[C@@]1(O)C(=O)OCc2c1cc1n(c2=O)Cc2cc3ccccc3nc2-1 [camptothecin, reference compound] |  |  |  |  |  |  | 32.5% |  |  |  |  |  |  |  |  |  |  |  |  |  |

Source: paper PMC10349804, “Natural resveratrol analogs differentially target endometriotic cells into apoptosis pathways” (Scientific Reports, 2023)
